Assay [1] deals with PC3 (prostate). The assay can be described thus: In vitro cytotoxic activity (MTT) assay, PC3. The format is cell-based. To be noted: Homo sapiens, PC-3; PC3 cells, exposed for 96 hours, 50% inhibition of cell proliferation; read-out: Cytotoxicity activity IC50, PC3 (prostate). As to the method:
(§1) In Vitro Cytotoxic Activity Assay
(§2) Compounds 1-16 were screened for their in vitro cytotoxic activity utilizing a 3-(4,5-dimethyl-thiazol-2-yl)-2,5-diphenyltetrazolium bromide (MTT) assay against selected cancer human cell lines consisting of PC3 (prostate), HCT116 (colon), A375 (melanoma), H1299 (lung), MIAPaCa-2 (pancreas), HL60 (leukemia), MCF7 (breast), MDA-MB-231 (breast) (T. Mosmann, J. Immunol. Meth., 1983, 65, 55-63). The cells were cultured at 37° C. in RMPI1640 medium supplemented with 10% fetal bovine serum, 50 IU/mL penicillin, and 50 μg/mL streptomycin in a 5% CO2 incubator. All cells were sub-cultured 3 times/week by trypsinisation. Viable cells were seeded and allowed to adhere for 12 hours before a test drug was added in 96-well plates at an initial density of 1.0×10^5 cells/mL. Tumor cell lines were separately exposed to various concentrations of the tested compounds followed by incubation at a temperature of 37° C. during 96 hours inside a medium of fresh RMPI 1640. Cells were subsequently incubated at 37° C. using MTT at 0.5 mg/mL during 4 hours. After removal of supernatant, formazan crystals were dissolved in isopropanol and the optical density was measured at 570 nm. CX-4945 was used as a positive control.

For assay [2], the system named is H1299 (lung). The assay can be described thus: In vitro cytotoxic activity (MTT) assay, H1299. To be noted: Homo sapiens, NCI-H1299; H1299 cells, exposed for 96 hours, 50% inhibition of cell proliferation; read-out: Cytotoxicity activity IC50, H1299 (lung). It is filed as cell-based. The method, then: as §1, §2
The subject of assay [3] is MIAPaCa-2 (pancreas). The assay can be described thus: In vitro cytotoxic activity (MTT) assay, MIAPaCa-2. The format is cell-based. As to conditions: Homo sapiens, MIA PaCa-2; MIAPaCa-2 cells, exposed for 96 hours, 50% inhibition of cell proliferation; read-out: Cytotoxicity activity IC50, MIAPaCa-2 (pancreas). The method, then: as §1, §2
Assay [4] deals with MCF7 (breast). The assay can be described thus: In vitro cytotoxic activity (MTT) assay, MCF7. The format is cell-based. To be noted: Homo sapiens; MCF7 cells, exposed for 96 hours, 50% inhibition of cell proliferation; read-out: Cytotoxicity activity IC50, MCF7 (breast). The method, then:
as §1, §2

Assay [5] deals with HL60 (leukemia). The assay can be described thus: In vitro cytotoxic activity (MTT) assay, HL60. It is filed as cell-based. As to conditions: Homo sapiens, HL-60; HL60 cells, exposed for 96 hours, 50% inhibition of cell proliferation; read-out: Cytotoxicity activity IC50, HL60 (leukemia). As to the method:
as §1, §2

Assay [6] concerns MDA-MB-231 (breast). The assay can be described thus: In vitro cytotoxic activity (MTT) assay, MDA-MB-231. It is filed as cell-based. To be noted: Homo sapiens; MDA-MB-231 cells, exposed for 96 hours, 50% inhibition of cell proliferation; read-out: Cytotoxicity activity IC50, MDA-MB-231 (breast). The method, then: as §1, §2
In assay [7] the test system is A375 (melanoma). The assay can be described thus: In vitro cytotoxic activity (MTT) assay, A375. To be noted: Homo sapiens, A-375; A375 cells, exposed for 96 hours, 50% inhibition of cell proliferation; read-out: Cytotoxicity activity IC50, A375 (melanoma). It is filed as cell-based. As to the method:
as §1, §2

The target of assay [8] is T1, recombinant human CK2 (RRββ-holoenzyme) (Homo sapiens, UniProt P68400).
T1 construct: purchased Millipore
The assay can be described thus: CK2 Kinase Assay (33P-ATP, filter plate). It is filed as biochemical. As to conditions: recombinant human CK2, final ATP concentration 15 μM, 10 min at 30° C.; read-out: protein kinase CK2 IC50. The method, then: Evaluation of Inhibitory Activity on Protein Kinase CK2
CK2 Kinase Assay was conducted using the protocol as described in Pierre F. et al; J. Med. Chem. 2011, 54, 635-654. The tested compounds in aqueous solution were added at a volume of 10 μL to a reaction mixture comprising 10 μL of assay dilution buffer (ADB; 20 mM MOPS, pH 7.2, 25 mM β-glycerol phosphate, 5 mM EGTA, 1 mM sodium orthovanadate, and 1 mM dithiothreitol), 10 μL of substrate peptide (RRRDDDSDDD, dissolved in ADB at a concentration of 1 mM), 10 μL of recombinant human CK2 (RRββ-holoenzyme, 25 ng dissolved in ADB; Millipore). Reactions were initiated by the addition of 10 μL of ATP solution (90% 75 mMMgCl2, 75 μM ATP (final ATP concentration: 15 μM) dissolved in ADB; 10% [γ-33P] ATP (stock 1mCi/100 μL; 3000 Ci/mmol (Perkin-Elmer) and maintained for 10 min at 30° C. The reactions were quenched with 100 μL of 0.75% phosphoric acid and then transferred to and filtered through a phosphor cellulose filter plate (Millipore). After washing each well five times with 0.75% phosphoric acid, the plate was dried under vacuum for 5 min and, following the addition of 15 μL of scintillation fluid to each well, the residual radioactivity was measured using a Wallac luminescence counter. The IC50 values were derived from eight concentrations of test inhibitors.

The test system of assay [9] is HCT116 (colon). The assay can be described thus: In vitro cytotoxic activity (MTT) assay, HCT116. The format is cell-based. As to conditions: Homo sapiens, HCT-116; HCT116 cells, exposed for 96 hours, 50% inhibition of cell proliferation; read-out: Cytotoxicity activity IC50, HCT116 (colon). The method, then:
as §1, §2

T1 sequence (P68400 whole entry): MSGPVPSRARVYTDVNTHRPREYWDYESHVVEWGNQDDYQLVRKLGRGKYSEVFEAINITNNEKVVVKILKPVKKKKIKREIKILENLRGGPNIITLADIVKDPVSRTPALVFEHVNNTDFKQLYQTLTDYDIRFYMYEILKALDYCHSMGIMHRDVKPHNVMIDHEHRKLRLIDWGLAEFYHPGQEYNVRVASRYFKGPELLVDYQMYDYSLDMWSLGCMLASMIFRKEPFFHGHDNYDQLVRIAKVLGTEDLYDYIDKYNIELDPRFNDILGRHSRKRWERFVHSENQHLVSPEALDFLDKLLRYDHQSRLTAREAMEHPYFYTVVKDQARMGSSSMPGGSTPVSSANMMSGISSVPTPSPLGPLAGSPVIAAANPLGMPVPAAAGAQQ
T1 sequence (P67870 whole entry partner): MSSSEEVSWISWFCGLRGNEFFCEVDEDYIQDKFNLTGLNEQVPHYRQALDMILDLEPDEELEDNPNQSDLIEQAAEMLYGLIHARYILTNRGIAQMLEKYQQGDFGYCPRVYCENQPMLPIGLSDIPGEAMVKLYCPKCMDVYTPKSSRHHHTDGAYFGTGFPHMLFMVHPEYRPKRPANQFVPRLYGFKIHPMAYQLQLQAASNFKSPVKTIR

What is called IC50 is the concentration at which inhibition is half-maximal. In the case of `Clc1cccc(Nc2nc3cnccc3c3nn4cnccc4c23)c1` [Compound 1, N-(3-chlorophenyl)pyrimido[1′,6′:1,5]pyrazolo[4,3-c][1,7]naphthyridin-6-amine], the half-inhibitory concentration (IC50) in assay [1] is 1700 nM; in assay [2] it was 2600 nM; in [3], 1300 nM; in assay [4] it was 5700 nM; in assay [5], 4400 nM; in assay [6], 4800 nM. For the same molecule, the half-inhibitory concentration (IC50) in [7] turned out to be 3200 nM; in [8], 47 nM; in assay [9] it was 1500 nM.

These data come from patent publication US12134617B1, “Pyrimido[1′6′:1,5]pyrazolo[4,3-c][1,7]naphthyridines as CK2 inhibitors” (KING FAISAL UNIVERSITY, priority 2024, dated 2024).
